Reference: patent publication US10744213B2, “Fluorescent compounds for imaging of blood vessels and blood flow, and an in vivo screen for pro- and anti-angiogenic agents” (COLOSSUS BIOPHARMA CONSULTANTS COMPANY, LIMITED, priority 2017, dated 2020)

Assays:
[1] = tested on: goldfish (Carassius auratus) blood serum; assay: Native PAGE of blood serum stained with the fluorescent compound (UV, fluorescence); type: binding; conditions: 25 μM stain
[2] = tested on: cow blood serum; assay: as above; type: binding; conditions: 25 μM stain
[3] = Acute toxicity on zebrafish over a five-day regimen; parameters: species or system zebrafish (Danio rerio); conditions: in vivo, other: added to the fish culture (immersion), calculated using the Benchmark Dose Software (BMDS)
[4] = tested on: zebrafish blood vessels; assay: Staining of zebrafish blood vessels; parameters: species or system zebrafish (Danio rerio); conditions: in vivo
Text: (§1) Another embodiment of the invention comprises contacting live zebrafish, wild type or not, at various development stages, with the fluorescent compounds. To achieve the contact, the fluorescent compounds can in general be formulated as a solution, in DMSO for instance, and added to the fish culture. […] The fluorescent compounds enter the zebrafish vascular system as a result of such treatment, causing the blood vessels to fluoresce upon excitation and the fluorescence image of the blood vessels and the motion of blood flow can be observed with a microscope. The images can also be recorded with an image capturing device such as a camera. […] Further advantage of the current invention, which is in significant contrast to the transgenic zebrafish models, resides in the fact that the fluorescent compounds are exogenously administered and can be allowed to clear out of the test animals when so desired (see Figure I), such as when further procedures are required with the test animals and the fluorescence may interfere. […]

[5] = tested on: zebrafish; type: in vivo, zebrafish (Danio rerio); conditions: after staining at 10 μM for 1 hour, continuous culture in RO water
Text: as §1

CCOC(=O)c1cn(-c2ccccc2)nc1-c1ccccc1 [Ethyl 1,3-diphenyl-1H-pyrazole-4-carboxylate]
Staining of serum bands on Native PAGE [1]: UV as well as matching blue fluorescence | Staining of serum bands on Native PAGE [2]: UV as well as matching blue fluorescence

CCOC(=O)c1ccc(C2CC(c3cc4cc(OC)ccc4oc3=O)=NN2c2ccc(C(=O)OCC)cc2)cc1 (centres unmarked) [Diethyl 4,4′-(3-(6-methoxy-2-oxo-2H-chromen-3-yl)-4,5-dihydro-1H-pyrazole-1,5-diyl)dibenzoate]
LC50 at 5 days [3]: 272 µM | Regular working concentration for staining zebrafish blood vessels [4]: 10 to 25 µM

CCOC(=O)c1ccc(N2N=C(c3cc4cc(OC)ccc4oc3=O)CC2c2ccccc2)cc1 (centres unmarked) [Ethyl 4-(3-(6-methoxy-2-oxo-2H-chromen-3-yl)-5-phenyl-4,5-dihydro-1H-pyrazol-1-yl)benzoate]
Clearance of the dye (fading of green fluorescence) [5]: incremental fading of green fluorescence over time within the first 6 hours
